SMILES strings stand for the structures.

The text below walks through data of patent US20230103791A1 (GLAXOSMITHKLINE INTELLECTUAL PROPERTY DEVELOPMENT LIMITED, priority 2019, published 2023).

For the assay, the target named is T1, human Nav1.8 (Homo sapiens, UniProt Q9Y5Y9).
T1 construct: expressed in transfected cells; host or cells: HEK293 (HEK293-Nav1.8)
T1 sequence (Q9Y5Y9 whole entry): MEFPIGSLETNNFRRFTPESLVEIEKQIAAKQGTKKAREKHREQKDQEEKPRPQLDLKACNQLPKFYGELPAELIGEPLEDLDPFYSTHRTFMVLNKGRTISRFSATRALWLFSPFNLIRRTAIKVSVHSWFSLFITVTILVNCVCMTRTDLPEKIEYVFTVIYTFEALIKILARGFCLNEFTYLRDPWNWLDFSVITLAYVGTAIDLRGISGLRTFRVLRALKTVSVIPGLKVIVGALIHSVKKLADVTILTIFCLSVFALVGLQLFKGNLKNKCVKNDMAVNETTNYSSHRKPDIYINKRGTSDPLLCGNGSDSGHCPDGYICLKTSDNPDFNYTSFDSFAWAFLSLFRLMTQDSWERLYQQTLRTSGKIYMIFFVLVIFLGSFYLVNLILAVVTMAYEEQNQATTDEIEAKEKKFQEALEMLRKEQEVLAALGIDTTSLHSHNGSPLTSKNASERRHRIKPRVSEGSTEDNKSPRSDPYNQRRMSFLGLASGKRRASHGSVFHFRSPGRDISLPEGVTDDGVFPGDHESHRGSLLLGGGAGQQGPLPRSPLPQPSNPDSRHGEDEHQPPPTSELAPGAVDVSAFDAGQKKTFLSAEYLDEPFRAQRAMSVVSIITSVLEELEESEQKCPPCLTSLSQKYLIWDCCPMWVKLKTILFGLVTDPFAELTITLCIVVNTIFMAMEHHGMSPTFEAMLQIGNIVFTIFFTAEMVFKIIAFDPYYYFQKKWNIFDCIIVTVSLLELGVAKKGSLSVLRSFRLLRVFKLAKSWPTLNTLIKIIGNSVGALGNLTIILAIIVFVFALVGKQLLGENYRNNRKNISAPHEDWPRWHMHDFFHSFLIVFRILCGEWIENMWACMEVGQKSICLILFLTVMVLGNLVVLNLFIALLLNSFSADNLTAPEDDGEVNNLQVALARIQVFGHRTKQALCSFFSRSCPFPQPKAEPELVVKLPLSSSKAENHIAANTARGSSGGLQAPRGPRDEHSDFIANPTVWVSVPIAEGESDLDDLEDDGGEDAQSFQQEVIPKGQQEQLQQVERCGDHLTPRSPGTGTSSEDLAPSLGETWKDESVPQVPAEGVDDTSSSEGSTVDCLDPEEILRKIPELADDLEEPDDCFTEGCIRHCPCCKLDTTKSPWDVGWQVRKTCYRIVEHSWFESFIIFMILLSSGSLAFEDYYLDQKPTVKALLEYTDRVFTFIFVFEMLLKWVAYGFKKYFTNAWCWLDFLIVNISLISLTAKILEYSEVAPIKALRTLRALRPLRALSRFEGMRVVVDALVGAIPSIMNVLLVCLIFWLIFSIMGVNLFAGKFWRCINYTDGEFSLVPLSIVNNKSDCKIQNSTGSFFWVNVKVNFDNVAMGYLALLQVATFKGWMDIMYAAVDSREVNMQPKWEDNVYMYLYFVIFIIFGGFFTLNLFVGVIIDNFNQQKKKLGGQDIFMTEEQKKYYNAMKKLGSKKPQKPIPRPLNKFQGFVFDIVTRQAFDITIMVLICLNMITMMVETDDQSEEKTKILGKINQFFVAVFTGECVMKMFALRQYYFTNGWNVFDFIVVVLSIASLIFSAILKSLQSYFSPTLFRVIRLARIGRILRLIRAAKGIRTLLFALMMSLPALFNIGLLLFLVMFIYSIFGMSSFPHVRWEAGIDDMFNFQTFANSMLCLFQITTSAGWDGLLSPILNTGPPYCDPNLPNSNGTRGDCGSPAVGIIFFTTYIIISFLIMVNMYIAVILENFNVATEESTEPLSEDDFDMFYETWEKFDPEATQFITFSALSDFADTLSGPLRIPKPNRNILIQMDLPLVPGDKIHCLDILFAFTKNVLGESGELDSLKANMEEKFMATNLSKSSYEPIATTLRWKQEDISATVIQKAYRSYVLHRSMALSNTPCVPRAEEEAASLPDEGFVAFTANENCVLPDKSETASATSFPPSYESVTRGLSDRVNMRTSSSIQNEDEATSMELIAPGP
T1 sequence (Q07699 19-218 partner): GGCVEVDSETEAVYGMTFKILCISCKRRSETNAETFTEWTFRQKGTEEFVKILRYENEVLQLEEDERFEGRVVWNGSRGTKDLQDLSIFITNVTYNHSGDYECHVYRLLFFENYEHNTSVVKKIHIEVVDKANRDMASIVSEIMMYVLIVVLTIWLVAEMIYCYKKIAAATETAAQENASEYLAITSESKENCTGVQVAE
Put plainly: Nav1.8 sodium channels assay, QPatch 48 HTX electrophysiology in HEK293-Nav1.8 cells. The format is cell-based. The settings on record: at least one set of experimental runs; read-out: average pIC50 value against Nav1.8 (converted). Here is the method: Human embryonic kidney […] cells (HEK293) expressing human Nav1.8, human Navβ1 and human TREK1 (HEK293-Nav1.8) were grown at 37° C., 5% CO2 in 150 cm^2 flasks. HEK293-Nav1.8 were passaged every 2-3 days when confluency reached 80-90% in to T175 cell culture flasks.
Pharmacological assessment of the invention was performed using HEK293-Nav1.8 in combination with an assay developed on the QPatch 48 HTX electrophysiological system. HEK293-Nav1.8 were prepared on the day of use by removing culture media, washing in DPBS, adding Accutase (2 ml to cover the surface, aspirate 1 ml then 1.5 min at 37° C.) followed by addition of CHO-SFM II to stop the enzyme digestion and in order to obtain a suspension of 3×10^6 cell/mL.
The invention was prepared in an extracellular solution of the following composition (in mM) NaCl 145, KCl 4, CaCl2 2, MgCl 2, HEPES 1, Glucose 10, pH 7.4 with NaOH Osmolality 300 mOsM/L. The intracellular solution was used of the following composition (in mM) CsF 115, CsCl 20, NaCl 5, EGTA 10, HEPES 10, Sucrose 20, pH 7.2 with CsOH Osmolality 310 mOsm/L.
Utilizing the voltage-clamp mode in the QPatch 48 HTX system a half inactivation state voltage protocol (V1/2) was used to determine pharmacological activity of the invention at Nav1.8 ion channels. A V1/2 protocol was utilized with the following voltage steps: a holding voltage of −100 mV was established followed by a 20 ms voltage step to 0 mV (P1), followed by an inactivating voltage step at −46 mV for 8 seconds, followed by a step to −100 mV for 20 ms, before a 20 ms step to 0 mV (P2) before returning to the holding voltage of −100 mV. This voltage protocol was repeated at a frequency of 0.07 Hz., current magnitude was quantified at the P2 step throughout the recording. Inhibition of the measured current amplitude with the invention was analyzed by fitting a 6-8 point dose-response curve allowing determination of the fifty percent inhibition concentration (IC50). Within the QPatch HTX software, P2 current was normalized according to measurements made at baseline after compound and after positive reference compound and fit to the following equation: […]
To assess current run-down over the course of the experiment vehicle-only wells were utilized and the normalized current with vehicle-only (n.IVEH) was determined. To correct the compound response for run-down, the currents were correct according the following formula: […]
Compounds of the invention are tested for activity against Nav1. 8 sodium channels in the above assay.
A general note: The patch-clamp technique gives a direct electrical read-out from membranes.
Consider `Cc1[nH]c(=O)ccc1N1CN(c2ccc(F)cc2C(C)(C)C)c2cc(C(F)(F)F)ccc2C1=O` (single isomer, unassigned) [Example 296, 1-(2-(tert-butyl)-4-fluorophenyl)-3-(2-methyl-6-oxo-1,6-dihydropyridin-3-yl)-7-(trifluoromethyl)-2,3-dihydroquinazolin-4(1H)-one], for which the IC50 was not above 100 nM.
The value for `Cc1cc(F)ccc1N1CN(c2ccc(=O)n(C)c2)C(=O)c2ccc(C(F)(F)F)cc21` [Example 1] was 794 to 7940 nM; that for `Cc1cc(F)ccc1N1CN(c2cccnc2)C(=O)c2ccc(C(F)(F)F)cc21` [Example 2] was 794 to 7940 nM.
The value for `COc1ncc(N2CN(c3ccc(F)cc3C)c3cc(C(F)(F)F)ccc3C2=O)cn1` [Example 3, 1-(4-fluoro-2-methylphenyl)-3-(2-methoxypyrimidin-5-yl)-7-(trifluoromethyl)-2,3-dihydroquinazolin-4(1H)-one] was 794 to 7940 nM; that for `Cc1cc(F)ccc1N1CN(c2ccnn2C)C(=O)c2cc(C(F)(F)F)ccc21` [Example 4, 1-(4-fluoro-2-methylphenyl)-3-(1-methyl-1H-pyrazol-5-yl)-6-(trifluoromethyl)-2,3-dihydroquinazolin-4(1H)-one] was 126 to 631 nM.
The value for `CC(=O)Nc1cccc(N2CN(c3ccc(F)cc3C)c3cc(C(F)(F)F)ccc3C2=O)c1` [Example 5, N-(3-(1-(4-fluoro-2-methylphenyl)-4-oxo-7-(trifluoromethyl)-1,4-dihydroquinazolin-3(2H)-yl)phenyl)aceta-mide] was 794 to 7940 nM; that for `CC(=O)Nc1ccc(N2CN(c3ccc(F)cc3C)c3cc(C(F)(F)F)ccc3C2=O)cc1` [Example 6, N-(4-(1-(4-fluoro-2-methylphenyl)-4-oxo-7-(trifluoromethyl)-1,4-dihydroquinazolin-3(2H)-yl)phenyl)aceta-mide] was 794 to 7940 nM.
For `Cc1cc(F)ccc1N1CN(c2ccc(C(N)=O)nc2)C(=O)c2c1ccc(Cl)c2F` [Example 7, 5-(6-chloro-5-fluoro-1-(4-fluoro-2-methylphenyl)-4-oxo-1,4-dihydroquinazolin-3(2H)-yl)picolinamide], the IC50 is 794 to 7940 nM.
The value for `Cc1cc(F)ccc1N1CN(c2ccnc(C(N)=O)c2)C(=O)c2c1ccc(Cl)c2F` [Example 8, 4-(6-chloro-5-fluoro-1-(4-fluoro-2-methylphenyl)-4-oxo-1,4-dihydroquinazolin-3(2H)-yl)picolinamide] was 794 to 7940 nM.
For `COc1ccc(N2CN(c3ccc(F)cc3Br)c3ccc(C(F)(F)F)cc3C2=O)c(C)n1` [Example 9, 1-(2-bromo-4-fluorophenyl)-3-(6-methoxy-2-methylpyridin-3-yl)-6-(trifluoromethyl)-2,3-dihydroquinazolin-4(1H)-one], the IC50 was 794 to 7940 nM.
The value for `COc1ccc(N2CN(c3ccc(F)cc3C)c3cc(C(F)(F)F)ccc3C2=O)cn1` [Example 10, 1-(4-fluoro-2-methylphenyl)-3-(6-methoxypyridin-3-yl)-7-(trifluoromethyl)-2,3-dihydroquinazolin-4(1H)-one] was 794 to 7940 nM.
The figure for `Cc1cnccc1N1CN(c2ccc(OC(F)(F)F)cc2C)c2cc(F)c(Cl)cc2C1=O` [Example 11, 6-chloro-7-fluoro-1-(2-methyl-4-(trifluoromethoxy)phenyl)-3-(3-methylpyridin-4-yl)-2,3-dihydroquinazolin-4(1H)-one] is 126 to 631 nM; for `CCc1cc(F)ccc1N1CN(c2ccncc2C)C(=O)c2cc(Cl)c(F)cc21` [Example 12, 6-chloro-1-(2-ethyl-4-fluorophenyl)-7-fluoro-3-(3-methylpyridin-4-yl)-2,3-dihydroquinazolin-4(1H)-one] it is 126 to 631 nM.
The figure for `Cc1cc(F)ccc1N1CN(c2ccc(S(C)(=O)=O)cc2)C(=O)c2ccc(C(F)(F)F)cc21` [Example 13, 1-(4-fluoro-2-methylphenyl)-3-(4-(methylsulfonyl)phen-yl)-7-(trifluoromethyl)-2,3-dihydroquinazolin-4(1H)-one] is 794 to 7940 nM.
